Series [1] has as its system phosphodiesterase II. The experiment in a line: Stability toward 5′-specific exonuclease (phosphodiesterase II). The class given is in vitro ADME. The following applies: oligo 0.1 mg/mL, 50 mM NaOAc (pH 6.5), 10 mM MgCl2. The protocol:
Stability of modified oligonucleotides toward 3′- or 5′-specific exonucleases: Oligonucleotides were prepared in a final concentration of 0.1 mg/mL in either 50 mM Tris (pH 7.2), 10 mM MgCl2 or 50 mM sodium acetate (pH 6.5), 10 mM MgCl2 for assessing the stability towards 3′- or 5′-specific exonucleases, respectively. The exonuclease (150 mU/mL SVPDE for 3′-stability or 500 mU/mL phosphodiesterase II for 5′-stability) was added immediately prior to analysis via IEX HPLC (dionex DNAPac PA200, 4×250 mm) using a gradient of 37-52% mobile phase (1 M NaBr, 20 mM sodium phosphate, pH 11, 15% MeCN; stationary phase: 20 mM sodium phosphate, 15% MeCN, pH 11) over 7.5 min with a flow of 1 mL/min. Samples were analyzed at given time points for up to 24 h. The quantity of full length oligonucleotides was determined as the area under the curve at A260. Percent full length oligonucleotides was calculated by dividing by the area under the curve at t=0 and multiplying by 100. Activity of enzyme was verified for each experiment by including a oligodeoxythymidylate with a terminal phosphorothioate linkage (5′-T19·T (SEQ ID NO: 708) or 5′-T·T19 (SEQ ID NO: 708) for 3′- or 5′-exonuclease activity, respectively). Each aliquot of enzyme was thawed just prior to the experiment. The half-life was determined by fitting to first order kinetics.
5′-Nuclease Stability:_To evaluate the 5′-exonuclease stability of enantiomerically pure (R)- and (S)-5′-C-methyl (C5′-Me) Guanosine substituted nucleosides a dT20 template sequence (“dT20” disclosed as SEQ ID NO: 1) was modified at the 5′-end with one modified nucleotide via PO or PS linkages (Table 13). The structures of the compounds are shown below with guanosine for comparison.
A dT20 template (“dT20” disclosed as SEQ ID NO: 1) having 5′end dT with PS linkages and 5′end Guanosine (G) with either PO or PS linkages were used as the control. ONs were incubated with Phosphodiesterase-II (500 mU/mL), and the half-life (T½) of each modified ON was determined by HPLC-based quantification of the full-length ON as a function of time. The results are summarized in Table 13 and HPLC stability profiles are depicted in FIGS. 24A and 24B showing decay curve of dT20 (SEQ ID NO: 1) modified at the 5′ end with Guanosine and (R) or (S)-5′-C-methyl Guanosine (C5′-MeG) with PO or PS linkages upon incubation with 5′ exonucleases-phosphodiesterase-II as a function of time. FIG. 24A is for the following conditions: a) enzyme conc. 500 mU/mL, Oligo Conc. 0.1 mg/mL, 50 mM NaOAc (pH-6.5):10 Mm MgCl2. FIG. 24B is for the following conditions: enzyme conc. 100 mU/mL, Oligo Conc. 0.1 mg/mL, 50 mM NaOAc (pH-6.5):10 mM MgCl2. The percentage full length ON is calculated by dividing the area under the peak corresponding to full length ON at a given time point by the full length at t=0 and multiplied by 100.
Stability of modified oligonucleotides toward 3′- or 5′-specific exonucleases: Modified oligonucleotides were prepared in a final concentration of 0.1 mg/mL in either 300 mM Tris (pH 7.2), 60 mM MgCl2 or 300 mM sodium acetate (pH 6.5), 60 mM MgCl2 for assessing the stability towards 3′- or 5′-specific exonucleases, respectively. […] Samples were analyzed at given time points for up to 24 h. The quantity of full length oligonucleotides was determined as the area under the curve at A260. Percent full length oligonucleotides was calculated by dividing by the area under the curve at t=0 and multiplying by 100. […]

For series [2], the system named is TTR. The experiment in a line: In vitro on-target activity, primary mouse hepatocytes, transfection, RT-qPCR (TTR siRNAs). Format: cell-based. The protocol:
Cell culture and transfections: Primary Mouse Hepatocytes (Thermo Fisher Scientific/Gibco) were transfected by adding 4.9 μL of Opti-MEM plus 0.1 μL of Lipofectamine RNAiMax per well (Invitrogen, cat #13778-150) to 5 μL of siRNA duplexes per well into a 384-well plate and incubated at room temperature for 15 minutes. 40 μL of Dulbecco's Modified Eagle Medium (Hep3b) or William's Medium (PMH) containing ˜5 ×10^3 cells were then added to the siRNA mixture. Cells were incubated for 24 hours at 37° C. and then processed for RNA purification. Experiments were performed at 10 nM and 0.1 nM doses of siRNA.
Total RNA isolation using DYNABEADS mRNA Isolation Kit: RNA was isolated using an automated protocol on a BioTek-EL406 platform using DYNABEADs (Invitrogen, cat #61012). Briefly, 70 μL of Lysis/Binding Buffer and 10 μL of lysis buffer containing 3 μL of magnetic beads were added to each well. Plates were incubated on an electromagnetic shaker for 10 minutes at room temperature and then magnetic beads were captured and the supernatant was removed. Bead-bound RNA was then washed 2 times with 150 μL Wash Buffer A and once with Wash Buffer B. Beads were then washed with 150 μL Elution Buffer, re-captured and supernatant removed.
cDNA synthesis using ABI High capacity cDNA reverse transcription kit (Applied Biosystems, cat #4368813): 12 μL of a master mix containing 1.2 μL 10× Buffer, 0.48 μL 25× dNTPs, 1.2 μL 10× Random primers, 0.6 μL Reverse Transcriptase, 0.6 μL RNase inhibitor and 7.92 μL of H2O per reaction was added to RNA isolated above. Plates were sealed, mixed, and incubated on an electromagnetic shaker for 10 minutes at room temperature, followed by 2 h 37° C.
Real time PCR: 2 μL of cDNA were added to a master mix containing 2 μL water, 0.5 μL of either an appropriate GAPDH TaqMan VIC Probe or the target probe and 5 μL Lightcycler 480 probe master mix (Roche, cat #04887301001) per well in a 384 well plate (Roche, cat #04887301001). Real time PCR was done in a LightCycler480 Real Time PCR system (Roche). Each duplex was tested in quadruplicate and data were normalized to cells transfected with a non-targeting control siRNA. To calculate relative fold change, real time data were analyzed using the ΔΔCt method and normalized to assays performed with cells transfected with a non-targeting control siRNA.
RT qPCR for Ttr mRNA quantification:_Primary mouse hepatocytes (PMH) were cultured in Williams E Medium with 10% fetal bovine serum. Transfection of cells using RNAiMAX reagent was done as per the manufacturer's recommended protocol. Thus, cells were thawed immediately prior to transfection and then plated onto 384-well plates with a seed density of ˜5000 cells/well. Pre-incubated lipid/siRNA complex (0.1 μL RNAiMax, siRNA, in 5 μL Opti-MEM for 15 min) was added to a 384-well collagen-coated plate (BioCoat; Corning) and cells were incubated for 20 h at 37° C. in an atmosphere of 5% CO2. Eight 6-fold serial dilutions ranging from 10 to 0.036 nM were used to perform dose response experiments. Media was removed before washing and lysing the cells. Using Dynabeads mRNA isolation kit according to manufacturer's protocol, RNA was extracted and subsequently reverse-transcribed with the ABI high capacity cDNA reverse transcription kit. Quantification was done by real-time PCR, whereby the cDNA (2 μL) was added to a master mix that contained 0.5 μL mouse Gapdh TaqMan Probe, 0.5 μL Ttr TaqMan probes, and 5 μL Lightcycler 480 probe master mix per well in a 384-well 50 plate. Real-time PCR was accomplished in an ABI 7900HT RT-PCR system using the ΔΔCt (RQ) assay. Each duplex and concentration was tested in four biological replicates. To calculate relative fold change, real time data were analyzed using the ΔΔCt method and normalized to assays performed with cells transfected with 10 nM nonspecific siRNA. IC50 values were calculated using a 4-parameter fit model using XLFit.
(Quantitative PCR measures a nucleic acid by following its amplification.)

Series [3] has as its system luciferase reporter plasmids (psiCHECK2, Renilla luciferase fused to target sequence). The series is described as follows: Off-target Dual-Glo luciferase reporter assay in COS-7 cells. The class given is cell-based. As to conditions: luciferase reporter plasmids co-transfected with siRNAs into COS-7 cells. Here is the method:
Dual-Glo® Luciferase assay: Cos7 cells (ATCC, Manassas, VA) were grown to near confluence at 37° C. in an atmosphere of 5% CO2 in DMEM (ATCC) supplemented with 10% FBS, before being released from the plate by trypsinization. siRNA and psiCHCECK2 plasmid transfection was carried out by adding 5 μL of siRNA duplexes and 5 μL of psiCHECK2 plasmid per well along with 5 μL of Opti-MEM plus 0.1 μL of Lipofectamine 2000 per well (Invitrogen, Carlsbad CA. cat #13778-150) and then incubated at room temperature for 15 minutes. The mixture was then added to the cells which were re-suspended in 35 ul of fresh complete media. The transfected cells were incubated at 37° C. in an atmosphere of 5% CO2.
48 hours after the siRNAs and psiCHECK2 plasmid were transfected; Firefly (transfection control) and Renilla (fused to target sequence) luciferase were measured. First, media was removed from cells. Then Firefly luciferase activity was measured by adding 20 μL of Dual-Glo® Luciferase Reagent equal to the culture medium volume to each well and mix. The mixture was incubated at room temperature for 30 minutes before luminescence (500 nm) was measured on a Spectramax (Molecular Devices) to detect the Firefly luciferase signal. Renilla luciferase activity was measured by adding 20 μL of room temperature of Dual-Glo® Stop & Glo® Reagent was added to each well and the plates were incubated for 10-15 minutes before luminescence was again measured to determine the Renilla luciferase signal. The Dual-Glo® Stop & Glo® Reagent, quenches the firefly luciferase signal and sustained luminescence for the Renilla luciferase reaction. siRNA activity was determined by normalizing the Renilla signal to the Firefly (control) signal within each well. The magnitude of siRNA activity was then assessed relative to cells that were transfected with the same vector but were not treated with siRNA or were treated with a non-targeting siRNA. All transfections were done at n=2 or greater.
A general note: In a reporter assay the amount or activity of a reporter protein is the signal.

Series [4] in a line: Rat toxicity study, clinical pathology parameters. The following applies: rats, single subcutaneous dose 30 mg/kg, cohort average.
The nature of series [5]: UV thermal melting temperatures of mUNA 12-mer duplexes. As to conditions: for ΔTm (° C.): relative to unmodified duplex. The class given is physicochemical. An excerpt: Values were reported as the maximum of the first derivative and are the average of at least two experiments.

In the oligonucleotide strings, read from the 5' end, every base follows the letter of its sugar. An asterisk marks phosphorothioate; unmarked linkages are phosphodiester. Other units and linkages are bracketed, terminal groups are in braces. A string of capitals states the bases alone. [UNA] = unlocked nucleic acid; d = 2'-deoxy (DNA); r = 2'-OH (RNA)

On to “GpodT19: G(dT)19, 5′ guanosine, PO linkage (DNA rGdTdTdTdTdTdTdTdTdTdTdTdTdTdTdTdTdTdTdT)”, for which the “Half-lives (T1/2), ty2” value in series [1] (Phosphodiesterase-II 500 mU/mL) is listed as less than 1 h. Also, the “Half-lives (T1/2), t12” value in series [1] (reduced Phosphodiesterase-II concentration 100 mU/mL) was less than 1 h.
By IC50 is commonly meant the concentration needed to halve the response being measured. Low readings indicate inhibition by little substance, high ones a need for much substance. “Parent (AD-125773): TTR siRNA; passenger u•u•cuugCuCUAuaaaccgugu(L), guide a•C•acgguuuauagAgCaagaa•c•a (sense CUUGCUCUAUAAACCGUGU; antisense ACGGUUUAUAGAGCAAGAA; phosphorothioate ends, overhangs, chemistry not fully specified)”: the half-maximal inhibitory concentration (IC50) in series [2] (TTR-4, modification at antisense position 7, primary mouse hepatocytes) was 0.136 nM; in series [3] (TTR-4, modification at antisense position 7) it was 1.21 nM.
As for “Parent (AD-64958): TTR siRNA; passenger a•a•caguGuUCUugcucuauaa(L), guide u•U•auaGagcaagaAcAcuguu•u•u (sense CAGUGUUCUUGCUCUAUAA; antisense AUAGAGCAAGAACACUGUU; phosphorothioate ends, overhangs, chemistry not fully specified)”, the “On-Target mRNA remaining (%) 0.1 nM siRNA” value in series [2] (TTR (Seq 2), primary mouse hepatocytes, 0.1 nM siRNA) was found to be 25.5%. Further, the “On-Target mRNA remaining (%) 10 nM siRNA” value in series [2] (TTR (Seq 2), primary mouse hepatocytes, 10 nM siRNA) was 2.3%. The substance also registered an IC50 in series [3] (TTR (Seq 2)) of 0.05 nM. Moreover, in series [4], the “A/G Avg.” value is 1.3, the “ALB Avg.” value is listed as 2.9 g/dL, the “ALP Avg.” value is 427 U/L and the “ALT Avg.” value was found to be 108 U/L. In series [4], the “AST Avg.” value is recorded as 332 U/L, the “BILI Avg.” value turned out to be 0.48 mg/dL, the “CA Avg.” value came to 9.9 mg/dL and the “CHOL Avg.” value turned out to be 43 mg/dL. In series [4], the “CREAT Avg.” value came to 0.21 mg/dL, the “GLDH Avg.” value came out at 140.8 U/L, the “GLOB Avg.” value is reported as 2.27 g/dL and the “GLUC Avg.” value is on record as 124 mg/dL. Besides, in series [4], the “K Avg.” value is recorded as 4.9 mmol/L, the “NA Avg.” value is 140 mmol/L, the “PHOS Avg.” value amounted to 9.0 mg/dL and the “PROT Avg.” value worked out at 5 g/dL. For the same substance, in series [4], the “TRIG Avg.” value is 51 mg/dL and the “UREAN Avg.” value amounted to 18.6 mg/dL.
For the substance “AD-511227.1 (sense UACAGUCUAUGU; antisense ACAUAGACUGUA; sense: sugars from the 5' end r5 [UNA]1 r6, backbone not given here; antisense: RNA, backbone not given here)”, the “ΔTm (° C.)” value was −16.6 °C in series [5] (1x PBS) and −17.5 °C in series [5] (8×PBS). Moreover, the “Tm (° C.)a” value in series [5] (mUNA 12-mer duplexes, 2.0 μM each strand, 1x PBS, pH 7.4) amounted to 35.5 °C. Also, the “Tm (° C.)b” value in series [5] (mUNA 12-mer duplexes, 2.0 μM each strand, 8×PBS, pH 7.4) is 43.6 °C.

The values above are taken from patent US20250207131A1, “MODIFIED RNA AGENTS WITH REDUCED OFF-TARGET EFFECT” (Alnylam Pharmaceuticals, Inc., priority 2018, published 2025).
